Laboratory results taken from patent US10807964B2, “Benzothiophene-based selective estrogen receptor downregulators” (The Board of Trustees of the University of Illinois, priority 2015, dated 2020).

Legend:
[1] = Mouse plasma concentration after oral administration; type: in vivo; settings: average of three mice; for concentration at 4 h: 4 h after oral gavage at 100 mg/kg; for concentration at 0.5 h: 0.5 h after oral gavage at 100 mg/kg
estrogen receptor = target: T1, estrogen receptor (Homo sapiens, UniProt P03372); experiment: Western blot of estrogen receptor downregulation (FIG. 4); type: cell-based; settings: 10 nM concentrations
T1 construct: Whole-cell extracts of cultured cells were prepared in lysis buffer; endogenous in cells
T1 sequence (P03372 1-595): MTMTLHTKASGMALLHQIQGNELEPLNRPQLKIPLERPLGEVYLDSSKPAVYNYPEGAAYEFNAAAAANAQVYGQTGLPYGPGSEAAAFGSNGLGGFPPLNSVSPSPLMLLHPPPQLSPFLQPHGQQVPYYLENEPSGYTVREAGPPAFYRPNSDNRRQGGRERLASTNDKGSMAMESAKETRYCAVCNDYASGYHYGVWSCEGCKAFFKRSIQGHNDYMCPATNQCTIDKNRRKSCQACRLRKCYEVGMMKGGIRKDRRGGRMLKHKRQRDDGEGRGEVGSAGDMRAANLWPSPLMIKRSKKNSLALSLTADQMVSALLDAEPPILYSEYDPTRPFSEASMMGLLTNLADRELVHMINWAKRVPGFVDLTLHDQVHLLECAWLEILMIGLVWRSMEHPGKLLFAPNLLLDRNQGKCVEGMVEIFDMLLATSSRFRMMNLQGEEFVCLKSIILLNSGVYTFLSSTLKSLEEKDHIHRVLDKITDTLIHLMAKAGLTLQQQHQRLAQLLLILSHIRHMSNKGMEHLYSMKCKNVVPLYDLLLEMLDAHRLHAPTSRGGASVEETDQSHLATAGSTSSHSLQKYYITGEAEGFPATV
Procedure: Whole-cell extracts of cultured cells were prepared in lysis buffer (200 mmol/L Tris, 1% Triton X-100, 5 mmol/L; EDTA) with protease and phosphatase inhibitor cocktails (1:50, both from Sigma-Aldrich) after scraping from the culture plates. Protein concentration was measured using the Bradford method (Bio-Rad). Proteins were separated under denaturing conditions and blotted onto nitrocellulose membrane (Bio-Rad) using a wet transfer system (Bio-Rad). Images of blots were acquired on a Bio-Rad ChemiDoc System following incubation with SuperSignal West Dura luminol solution (Thermo Fisher Scientific).

ERα = target: T2, ERα (Homo sapiens, UniProt P03372); experiment: ER downregulation/degradation by in-cell western (ICW) in MCF-7:WS8 cells; type: cell-based; settings: Table 2; read-out: IC50 of ER downregulation from in-cell western blot experiments
T2 construct: MCF-7:WS8 cells were kept in stripped medium 2 days; endogenous in cells; host or cells: MCF-7:WS8
T2 sequence (P03372 1-595): T1 sequence (P03372 1-595)

MCF-7:Tam1 tumors = experiment: MCF-7:TAM1 xenograft model of endocrine-resistant ER+ breast cancer; type: in vivo, ovariectomized athymic nude mice; settings: 100 mg/kg daily by oral gavage; GDN-0810 at day 23 after treatment

SMILES	concentration at 4 h [1] [nM]	concentration at 0.5 h [1] [nM]	Estrogen receptor downregulation, western blot (estrogen receptor)	also measured
Cc1cc(Cl)cc(C)c1C(=O)c1sc2cc(O)ccc2c1Oc1ccc(/C=C/C(=O)O)cc1 [Compound 21, (E)-3-(4-((2-(4-Chloro-2,6-dimethylbenzoyl)-6-hydroxybenzo[b]thiophen-3-yl)oxy)phenyl) acrylic acid]	858			
Cc1cccc(C)c1C(=O)c1sc2cc(O)ccc2c1Oc1ccc(/C=C/C(=O)O)cc1 [Compound 11, (E)-3-(4-((2-(2,6-Dimethylbenzoyl)-6-hydroxybenzo[b]thiophen-3-yl)oxy)phenyl) acrylic acid]	0.5	1010		
CCc1ccccc1C(=O)c1sc2cc(O)ccc2c1Oc1ccc(/C=C/C(=O)O)cc1 [Compound 3, (E)-3-(4-((2-(2-Ethylbenzoyl)-6-hydroxybenzo[b]thiophen-3-yl)oxy)phenyl) acrylic acid]			downregulate the estrogen receptor	
Cc1cc(F)ccc1C(=O)c1sc2cc(O)ccc2c1Oc1ccc(/C=C/C(=O)O)cc1 [Compound 1, (E)-3-(4-((2-(4-Fluoro-2-methylbenzoyl)-6-hydroxybenzo[b]thiophen-3-yl)oxy)phenyl)acrylic acid]	145	1240	downregulate the estrogen receptor	
O=C(O)/C=C/c1ccc(Oc2c(C(=O)c3ccccc3)sc3cc(O)ccc23)cc1 [Compound 4, (E)-3-(4-((2-Benzoyl-6-hydroxybenzo[b]thiophen-3-yl)oxy)phenyl) acrylic acid]				DC50 (ERα): 5 nM
Cc1ccsc1C(=O)c1sc2cc(O)ccc2c1Oc1ccc(/C=C/C(=O)O)cc1 [Compound 7, (E)-3-(4-((6-Hydroxy-2-(3-methylthiophene-2-carbonyl)benzo[b]thiophen-3-yl)oxy)phenyl) acrylic acid]			downregulate the estrogen receptor	
CC/C(=C(\c1ccccc1)c1ccc(OCCN(C)C)cc1)c1ccccc1 [Tamoxifen]				Regression of tumor size (tumor area reduction) (MCF-7:Tam1 tumors): entirely without effect

Further lines, with some results ahead:

concentration at 4 h [1] [nM]	concentration at 0.5 h [1] [nM]	Estrogen receptor downregulation, western blot (estrogen receptor)	SMILES	also measured
432	3870		Cc1ccc(C(=O)c2sc3cc(O)ccc3c2Oc2ccc(/C=C/C(=O)O)cc2)c(C)c1 [Compound 12, (E)-3-(4-((2-(2,4-Dimethylbenzoyl)-6-hydroxybenzo[b]thiopben-3-yl)oxy)phenyl) acrylic acid]	
		downregulate the estrogen receptor	Cc1ccc(F)cc1C(=O)c1sc2cc(O)ccc2c1Oc1ccc(/C=C/C(=O)O)cc1 [Compound 6, (E)-3-(4-((2-(5-Fluoro-2-methylbenzoyl)-6-hydroxybenzo[b]thiophen-3-yl)oxy)phenyl) acrylic acid]	
47	5580	downregulate the estrogen receptor	Cc1ccccc1C(=O)c1sc2cc(O)ccc2c1Oc1ccc(/C=C/C(=O)O)cc1 [Compound 5, (E)-3-(4-((6-Hydroxy-2-(2-methylbenzoyl)benzo[b]thiophen-3-yl)oxy)phenyl) acrylic acid]	
164	9720		Cc1cc(F)cc(C)c1C(=O)c1sc2cc(O)ccc2c1Oc1ccc(/C=C/C(=O)O)cc1 [Compound 20, (E)-3-(4-((2-(4-Fluoro-2,6-dimethylbenzoyl)-6-hydroxybenzo[b]thiophen-3-yl)oxy)phenyl) acrylic acid]	
